This is an account of results in PubChem BioAssay AID720601 (Broad Institute, 2013).

Records with an inconclusive call do not appear. The source made the active and inactive calls.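 The calls were made as follows: active = compounds lowering the viability dye signal with a fitted AC50 within twice the top dose in all three time points; inconclusive = time points disagree in their calls; inactive = inactive at every time point, including signal rises.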

A short description of experiment [1]: C2C12 mouse myoblast viability loss, dose response, cytotoxicity control for HRAS target identification, cell-based, Alamar Blue fluorescence, 8/24/48 h, dry powder (AID 720601). To be noted: C2C12 mouse myoblast viability, Alamar Blue, 8/24/48 h, at 35 µM, stronger effect = lower value.
Experiment [2] concerns C2C12 mouse myoblast viability, Alamar Blue, 8/24/48 h. Described as above.

`Cc1onc(C(=O)N2CCN(C(c3ccncc3)c3ccncc3)CC2)c1[N+](=O)[O-]`: the activity was -0.518% in experiment [1] (8 h viability change) and -6.22% in experiment [1] (24 h viability change).
In the case of `CCC(=O)N(c1ccc(OC)c(Cl)c1)C(C(=O)NCCc1ccccc1)c1cccs1` (stereo not given), the AC50 in experiment [2] was > 70 µM (inactive). Moreover, the activity was 0.483% in experiment [1] (8 h viability change) and -13.2% in experiment [1] (24 h viability change).
